Target: T1, myelin-associated glycoprotein (MAG) (Rattus norvegicus, UniProt P07722)
T1 sequence (P07722 20-626): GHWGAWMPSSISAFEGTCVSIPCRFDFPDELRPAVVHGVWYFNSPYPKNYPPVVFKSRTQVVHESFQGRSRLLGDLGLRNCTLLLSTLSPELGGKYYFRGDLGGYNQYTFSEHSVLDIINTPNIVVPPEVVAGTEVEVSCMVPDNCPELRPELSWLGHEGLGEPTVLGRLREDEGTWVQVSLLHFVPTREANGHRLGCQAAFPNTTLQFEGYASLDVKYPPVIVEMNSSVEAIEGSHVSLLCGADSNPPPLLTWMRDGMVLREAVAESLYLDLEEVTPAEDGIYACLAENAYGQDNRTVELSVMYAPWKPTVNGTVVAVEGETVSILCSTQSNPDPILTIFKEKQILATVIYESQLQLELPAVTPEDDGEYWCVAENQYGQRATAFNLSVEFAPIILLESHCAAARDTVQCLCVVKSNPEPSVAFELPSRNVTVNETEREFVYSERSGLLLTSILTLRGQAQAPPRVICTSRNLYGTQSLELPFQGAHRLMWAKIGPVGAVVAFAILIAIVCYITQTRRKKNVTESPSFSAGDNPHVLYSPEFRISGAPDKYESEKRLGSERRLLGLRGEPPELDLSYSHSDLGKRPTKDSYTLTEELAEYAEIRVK
Assay: Adherence of MAG-transfected COS cells to microwell surfaces on which gangliosides/glycolipids were adsorbed (LDH activity)
Conditions: for support of MAG-mediated cell adhesion: structure-function comparison, FIGS. 1C and 2; for adhesion of MAG-transfected cells after neuraminidase treatment of the absorbed ganglioside: Vibrio cholerae neuraminidase-treated microwells; for MAG-transfected COS cells added that adhered: ganglioside-absorbed wells

Substance: NeuAc α2,3 Gal β1,3 GalNAc β1,4(NeuAc α2,3)Gal β1, 4Glcβ1,1'Ceramide [GD1a]
- binding compared to GM1b: enhanced binding
- support of MAG-mediated cell adhesion: supported MAG-mediated cell adhesion

Substance: NeuAc α2,3 Gal β1,3(NeuAc α2,6) GalNAc β1,4(NeuAc α2,8 NeuAc α2,3)Gal β1,4Glc β1,1'Ceramide [GQ1bα]
- adhesion of MAG-transfected cells after neuraminidase treatment of the absorbed ganglioside: completely blocked
- MAG-transfected COS cells added that adhered: 70-80%
- potency at supporting MAG-mediated cell adhesion relative to GT1b (more potent than GT1b, FIGS. 2 and 3): 8 fold

Substance: NeuAc α2,3 Gal β1,3GalNAc β1,4(NeuAc α2,8 NeuAc α2,3) Gal β1, 4 Glc β1,1'Ceramide [GT1b]
- adhesion of MAG-transfected cells after neuraminidase treatment of the absorbed ganglioside: did not support adhesion
- adherence of MAG-transfected COS cells to ganglioside-absorbed surface (artificial membrane monolayer with phosphatidylcholine and cholesterol, FIG. 1B): adhered in a concentration-dependent manner
- binding compared to GM1b: enhanced binding
- adherence of control-transfected COS cells (control-transfected COS cells, FIG. 1B): did not bind
- adhesion of MAG-transfected cells to control-treated microwells (control-treated (no neuraminidase) microwells, FIG. 1D): supported adhesion
- MAG-transfected COS cells added that adhered: 30-40%
- support of MAG-mediated cell adhesion: supported MAG-mediated cell adhesion

From patent US5962434A, “Compounds for stimulating nerve growth” (The Johns Hopkins University School of Medicine, priority 1996, dated 1999)
